# Target: His-GST tagged PARG (Homo sapiens, UniProt Q86W56)
# Assay: In vitro PARG assay (TR-FRET)
# Assay type: biochemical
# Conditions: 4 pM His-GST tagged PARG, 30 nM Bio PARylated PARP1 substrate, 20 min at room temperature, TR-FRET Em 665/Em 615
# Description: The in vitro PARG assay experiment was conducted in a standard 384-well plate with a total volume of 15 µL. To a 384-well plate containing the test compound was added 5 µL of an enzyme reaction mixture (50 mM Tris-HCL pH 7.5, 50 mM KCL, 0.01% Triton X-100, 0.01% BSA, and 4 pM His-GST tagged PARG). The plate was incubated at room temperature for 10 min, and then 5 µL of a substrate mixture (50 mM Tris-HCL pH 7.5, 50 mM KCL, 0.01% Triton X-100, 0.01% BSA, and 30 nM Bio PARylated PARP1) was added to initiate the reaction. The plate was further incubated at room temperature for 20 min, and then 5 µL of a detection reagent was added to terminate the reaction. The detection reagent was prepared from a buffer (50 mM Tris-HCl pH 7.5, 50 mM KCL, 0.01% Triton X-100, and 0.01% BSA), 3 µM compound PDD00017273, 1.5× Mab anti-6HIS XL665 (Cisbio: 61HISXLA), and 1.5× streptavidin terbium cryptate (Cisbio: 610SATLA). The final concentrations of the compound PDD00017273, the 1.5× Mab anti-6HIS XL665 (Cisbio: 61HISXLA), and the 1.5× streptavidin terbium cryptate were 1 µM, 0.5×, and 0.5×, respectively. After incubation in the dark at room temperature for 120 min, TR-FRET signals were measured at Ex 340, Em 665, and Em 615. The ratio for each well was calculated as Em 665/Em 615 (the ratio here corresponds to the ratio of fluorescence signals at the wavelengths).
# Sequence of His-GST tagged PARG (Q86W56 whole entry): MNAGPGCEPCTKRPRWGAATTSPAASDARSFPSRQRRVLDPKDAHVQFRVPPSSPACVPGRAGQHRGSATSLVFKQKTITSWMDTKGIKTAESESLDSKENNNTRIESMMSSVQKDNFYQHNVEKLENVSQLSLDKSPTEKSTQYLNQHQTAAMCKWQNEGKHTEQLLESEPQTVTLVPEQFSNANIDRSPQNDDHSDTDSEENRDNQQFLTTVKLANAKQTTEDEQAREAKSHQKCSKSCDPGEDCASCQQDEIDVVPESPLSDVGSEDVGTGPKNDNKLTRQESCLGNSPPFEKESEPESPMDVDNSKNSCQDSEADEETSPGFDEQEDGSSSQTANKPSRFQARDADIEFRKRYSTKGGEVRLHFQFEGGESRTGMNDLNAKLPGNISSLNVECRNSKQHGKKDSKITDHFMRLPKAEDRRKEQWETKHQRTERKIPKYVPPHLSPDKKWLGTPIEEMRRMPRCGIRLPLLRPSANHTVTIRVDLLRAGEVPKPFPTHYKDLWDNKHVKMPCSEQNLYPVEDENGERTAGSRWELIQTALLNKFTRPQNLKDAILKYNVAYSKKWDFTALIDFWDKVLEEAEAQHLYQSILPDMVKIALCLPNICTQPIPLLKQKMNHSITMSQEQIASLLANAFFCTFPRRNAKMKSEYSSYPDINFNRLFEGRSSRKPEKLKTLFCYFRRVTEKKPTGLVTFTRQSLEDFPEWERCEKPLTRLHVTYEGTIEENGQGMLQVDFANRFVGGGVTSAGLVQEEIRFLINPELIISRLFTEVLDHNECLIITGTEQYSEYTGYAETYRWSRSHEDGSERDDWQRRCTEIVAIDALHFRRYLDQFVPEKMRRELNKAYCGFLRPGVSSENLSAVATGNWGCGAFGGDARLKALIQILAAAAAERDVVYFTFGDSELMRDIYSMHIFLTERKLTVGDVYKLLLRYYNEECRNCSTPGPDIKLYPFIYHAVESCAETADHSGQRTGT
row,IC50 [nM],Compound
1,< 100,CC(C)C(=O)C(=O)N1CCN(c2cc(S(=O)(=O)NC3(C)CC3)cc3c2cnn3-c2nnc(C(F)F)s2)C[C@H]1C [EVO29383]
2,< 100,C[C@@H]1CN(c2cc(S(=O)(=O)NC3(C#N)CC3)cc3c2cnn3-c2nnc(C(F)F)s2)CCN1C(=O)C(N)=O [EVO29298]
3,< 100,Cc1nnc(-n2ncc3c(N4CCN(C(=O)[C@@H](C)O)[C@H](C)C4)cc(S(=O)(=O)NC4(C)CC4)cc32)s1 [EVO29338]
4,< 100,"C[C@@H]1CN(c2cc(S(=O)(=O)NC3(C#N)CC3)cc3c2cnn3-c2nnc(C(F)F)s2)CCN1C(=O)C(O)C1CC1 (single isomer, unassigned) [EVO29534]"
5,< 100,"COC(C(=O)N1CCN(c2cc(S(=O)(=O)NC3(C#N)CC3)cc3c2cnn3-c2nnc(C(F)F)s2)C[C@H]1C)C1CC1 (single isomer, unassigned) [EVO29715P1]"
6,< 100,Cc1nnc(-n2ncc3c(N4CCN(C(=O)C(=O)C(C)(C)C)[C@H](C)C4)cc(S(=O)(=O)NC4(C)CC4)cc32)s1 [EVO29408]
7,< 100,C[C@@H]1CN(c2cc(S(=O)(=O)NC3(C#N)CC3)cc3c2cnn3-c2nnc(C(F)F)s2)CCN1C(=O)[C@](C)(O)C(F)(F)F [EVO29462]
8,< 100,N#CC1(NS(=O)(=O)c2cc(N3CCN(C(=O)CO)CC3)c3cnn(-c4nnc(C(F)F)s4)c3c2)CC1 [EVO29103]
9,< 100,Cc1nnc(-n2ncc3c(N4CCN(C(=O)C(=O)C(C)C)[C@H](C)C4)cc(S(=O)(=O)NC4(C#N)CC4)cc32)s1 [EVO29385]
10,< 100,C[C@@H]1CN(c2cc(S(=O)(=O)NC3(C)CC3)cc3c2cnn3-c2nnc(C(F)F)s2)CCN1C(=O)[C@](C)(O)C(F)(F)F [EVO29496]
11,< 100,"C[C@@H]1CN(c2cc(S(=O)(=O)NC3(C#N)CC3)cc3c2cnn3-c2nnc(C(F)F)s2)CCN1C(=O)C(O)C(C)(C)CF (single isomer, unassigned) [EVO29751P2]"
12,< 100,Cc1nnc(-n2ncc3c(N4CCN(C(=O)C(=O)C(C)C)[C@H](C)C4)cc(S(=O)(=O)NC4(C)CC4)cc32)s1 [EVO29384]
13,100 to 500,C[C@@H]1CN(c2cc(S(=O)(=O)NC3(C#N)CC3)cc3c2nnn3-c2nnc(C(F)F)s2)CCN1C(=O)[C@H](O)C(C)(C)C [EVO29725]
14,< 100,CO[C@H](C)C(=O)N1CCN(c2cc(S(=O)(=O)NC3(C#N)CC3)cc3c2cnn3-c2nnc(C)s2)C[C@H]1C [EVO29411]
15,< 100,CC(C)(C)[C@@H](O)C(=O)N1CCN(c2cc(S(=O)(=O)NC3(C#N)CC3)cc3c2cnn3-c2nnc(C(F)F)s2)C[C@H]1CF [EVO29778]
16,< 100,Cc1nnc(-n2ncc3c(N4CCN(C(=O)[C@@H](C)O)[C@H](C)C4)cc(S(=O)(=O)NC4(C#N)CC4)cc32)s1 [EVO29336]
17,< 100,C[C@@H]1CN(c2cc(S(=O)(=O)NC3(C#N)CC3)cc3c2cnn3-c2nnc(C(F)F)s2)CCN1C(=O)[C@@](C)(O)C(F)(F)F [EVO29463]
18,< 100,CO[C@@H](C(=O)N1CCN(c2cc(S(=O)(=O)NC3(C#N)CC3)cc3c2cnn3-c2nnc(C(F)F)s2)C[C@H]1C)C(C)C [EVO29418]
19,< 100,"C[C@@H]1CN(c2cc(S(=O)(=O)NC3(C#N)CC3)cc3c2cnn3-c2nnc(C(F)F)s2)CCN1C(=O)C(O)C(C)(C)C(F)F (single isomer, unassigned) [EVO29752P1]"
20,< 100,"CCOC(C(=O)N1CCN(c2cc(S(=O)(=O)NC3(C#N)CC3)cc3c2cnn3-c2nnc(C(F)F)s2)C[C@H]1C)C1CC1 (single isomer, unassigned) [EVO29710P2]"
21,< 100,C[C@@H](O)C(=O)N1CCN(c2cc(S(=O)(=O)NC3(C#N)CC3)cc3c2cnn3-c2nnc(C(F)F)s2)CC1 [EVO29284]
22,< 100,C[C@@H]1CN(c2cc(S(=O)(=O)NC3(C#N)CC3)cc3c2cnn3-c2nnc(C(F)F)s2)CCN1C(=O)C(C)(C)OC(F)F [EVO29592]
23,100 to 500,C[C@@H]1CN(c2cc(S(=O)(=O)NC3(C#N)CC3)cc3c2cnn3-c2nnc(C(F)F)s2)CCN1C(=O)C(=O)C1CC1 [EVO29386]
24,< 100,CO[C@@H](C(=O)N1CCN(c2cc(S(=O)(=O)NC3(C#N)CC3)cc3c2cnn3-c2nnc(C(F)F)s2)C[C@H]1C)C(C)(C)C [EVO29736]
25,< 100,"C[C@@H]1CN(c2cc(S(=O)(=O)NC3(C#N)CC3)cc3c2cnn3-c2nnc(C(F)F)s2)CCN1C(=O)C(O)C(C)(C)CO (single isomer, unassigned) [EVO29790P2]"
26,< 100,"COC(C(=O)N1CCN(c2cc(S(=O)(=O)NC3(C#N)CC3)cc3c2cnn3-c2nnc(C(F)F)s2)C[C@H]1C)C1CC1 (single isomer, unassigned) [EVO29715P2]"

row,IC50 [nM],Compound
1,< 100,"CCOC(C(=O)N1CCN(c2cc(S(=O)(=O)NC3(C#N)CC3)cc3c2cnn3-c2nnc(C(F)F)s2)C[C@H]1C)C1CC1 (single isomer, unassigned) [EVO29710P1]"
2,100 to 500,Cc1nnc(-n2ncc3c(N4CCN(C(=O)[C@@H](N)CO)[C@H](C)C4)cc(S(=O)(=O)NC4(C)CC4)cc32)s1 [EVO29314]
3,< 100,C[C@@H]1CN(c2cc(S(=O)(=O)NC3(C)CC3)cc3c2c(F)nn3-c2nnc(C(F)F)s2)CCN1C(=O)[C@H](O)C(C)(C)C [EVO29798]
4,< 100,CO[C@@H](C(=O)N1CCN(c2cc(S(=O)(=O)NC3(C#N)CC3)cc3c2cnn3-c2nnc(C)s2)C[C@H]1C)C(C)C [EVO29420]
5,< 100,CC(=O)C(=O)N1CCN(c2cc(S(=O)(=O)NC3(C)CC3)cc3c2cnn3-c2nnc(C(F)F)s2)C[C@H]1C [EVO29388]
6,< 100,C[C@H](O)C(=O)N1CCN(c2cc(S(=O)(=O)NC3(C#N)CC3)cc3c2cnn3-c2nnc(C(F)F)s2)C[C@H]1C [EVO29334]
7,< 100,C[C@@H]1CN(c2cc(S(=O)(=O)NC3(C#N)CC3)cc3c2cnn3-c2nnc(C(F)F)s2)CCN1C(=O)C(=O)C(C)(C)C [EVO29405]
8,< 100,"C[C@@H]1CN(c2cc(S(=O)(=O)NC3(C#N)CC3)cc3c2cnn3-c2nnc(C(F)F)s2)CCN1C(=O)C(O)C1CC1 (single isomer, unassigned) [EVO29537]"
9,< 100,C[C@@H]1CN(c2cc(S(=O)(=O)NC3(C#N)CC3)cc3c2c(F)nn3-c2nnc(C(F)F)s2)CCN1C(=O)[C@](C)(O)C(F)(F)F [EVO29762]
10,< 100,"C[C@@H]1CN(c2cc(S(=O)(=O)NC3(C#N)CC3)cc3c2cnn3-c2nnc(C(F)F)s2)CCN1C(=O)C(O)C(C)(C)C(F)F (single isomer, unassigned) [EVO29752P2]"
11,< 100,"C[C@@H]1CN(c2cc(S(=O)(=O)NC3(C#N)CC3)cc3c2cnn3-c2nnc(C(F)F)s2)CCN1C(=O)C(O)C(C)(C)CF (single isomer, unassigned) [EVO29751P1]"
12,< 100,COC(C)(C)C(=O)N1CCN(c2cc(S(=O)(=O)NC3(C)CC3)cc3c2cnn3-c2nnc(C(F)F)s2)C[C@H]1C [EVO29503]
13,< 100,C[C@@H]1CN(c2cc(S(=O)(=O)NC3(C)CC3)cc3c2cnn3-c2nnc(C(F)F)s2)CCN1C(=O)C(=O)C(C)(C)C [EVO29406]
14,< 100,CO[C@H](C)C(=O)N1CCN(c2cc(S(=O)(=O)NC3(C)CC3)cc3c2cnn3-c2nnc(C(F)F)s2)C[C@H]1C [EVO29410]
15,< 100,CC(C)C(=O)C(=O)N1CCN(c2cc(S(=O)(=O)NC3(C#N)CC3)cc3c2cnn3-c2nnc(C(F)F)s2)C[C@H]1C [EVO29291]
16,< 100,C[C@@H]1CN(c2cc(S(=O)(=O)NC3(C#N)CC3)cc3c2cnn3-c2nnc(C(F)F)s2)CCN1C(=O)[C@H](O)C(C)(C)C [EVO29451]
17,< 100,CCOC(C)(C)C(=O)N1CCN(c2cc(S(=O)(=O)NC3(C)CC3)cc3c2cnn3-c2nnc(C(F)F)s2)C[C@H]1C [EVO29507]
18,< 100,CO[C@H](C)C(=O)N1CCN(c2cc(S(=O)(=O)NC3(C#N)CC3)cc3c2cnn3-c2nnc(C(F)F)s2)C[C@H]1C [EVO29409]
19,< 100,C[C@@H]1CN(c2cc(S(=O)(=O)NC3(C)CC3)cc3c2cnn3-c2nnc(C(F)F)s2)CCN1C(=O)C(=O)C1CC1 [EVO29387]
20,< 100,CC(C)[C@@H](O)C(=O)N1CCN(c2cc(S(=O)(=O)NC3(C#N)CC3)cc3c2cnn3-c2nnc(C(F)F)s2)C[C@H]1C [EVO29335]
21,< 100,CO[C@@H](C(=O)N1CCN(c2cc(S(=O)(=O)NC3(C)CC3)cc3c2cnn3-c2nnc(C(F)F)s2)C[C@H]1C)C(C)C [EVO29419]
22,< 100,C[C@@H]1CN(c2cc(S(=O)(=O)NC3(C#N)CC3)cc3c2ccn3-c2nnc(C(F)F)s2)CCN1C(=O)[C@H](O)C(C)(C)C [EVO29788]
23,100 to 500,C[C@@H]1CN(c2c(F)c(S(=O)(=O)NC3(C#N)CC3)cc3c2c(F)nn3-c2nnc(C(F)F)s2)CCN1C(=O)[C@H](O)C(C)(C)C [EVO29792]
24,< 100,C[C@@H]1CN(c2cc(S(=O)(=O)NC3(C#N)CC3)cc3c2c(F)nn3-c2nnc(C(F)F)s2)CCN1C(=O)[C@@](C)(O)C(F)(F)F [EVO29761]
25,< 100,COC(C)(C)C(=O)N1CCN(c2cc(S(=O)(=O)NC3(C#N)CC3)cc3c2cnn3-c2nnc(C(F)F)s2)C[C@H]1C [EVO29426]
26,< 100,C[C@@H]1CN(c2cc(S(=O)(=O)NC3(C)CC3)cc3c2cnn3-c2nnc(C(F)F)s2)CCN1C(=O)C(C)(C)O [EVO29469]

# Reference: patent EP4559912A1, “SULFUR-CONTAINING HETEROAROMATIC RING COMPOUND, PHARMACEUTICAL COMPOSITION THEREOF, AND USE THEREOF” (Evopoint Biosciences Co., Ltd., priority 2022, dated 2024)
